Experimental data reported in ChEMBL document CHEMBL2331204, “Fluorinated N,N'-diarylureas as AMPK activators” (Bioorg Med Chem Lett, 2013).
Active and inactive are the calls of the source. No cut-off for these calls is given here.

Assays:
[1] = biological target: 5'-AMP-activated protein kinase catalytic subunit alpha-1 (Homo sapiens) (UniProt Q13131); assay: Activation of AMPKalpha in human LS 174T cells assessed as phosphorylation at T172 at 1 to 3 uM by Western blotting analysis relative to urea-3,4-diCl; format: cell-based; conditions: LS174T
Sequence of 5'-AMP-activated protein kinase catalytic subunit alpha-1 (Homo sapiens) (Q13131 whole entry, looked up): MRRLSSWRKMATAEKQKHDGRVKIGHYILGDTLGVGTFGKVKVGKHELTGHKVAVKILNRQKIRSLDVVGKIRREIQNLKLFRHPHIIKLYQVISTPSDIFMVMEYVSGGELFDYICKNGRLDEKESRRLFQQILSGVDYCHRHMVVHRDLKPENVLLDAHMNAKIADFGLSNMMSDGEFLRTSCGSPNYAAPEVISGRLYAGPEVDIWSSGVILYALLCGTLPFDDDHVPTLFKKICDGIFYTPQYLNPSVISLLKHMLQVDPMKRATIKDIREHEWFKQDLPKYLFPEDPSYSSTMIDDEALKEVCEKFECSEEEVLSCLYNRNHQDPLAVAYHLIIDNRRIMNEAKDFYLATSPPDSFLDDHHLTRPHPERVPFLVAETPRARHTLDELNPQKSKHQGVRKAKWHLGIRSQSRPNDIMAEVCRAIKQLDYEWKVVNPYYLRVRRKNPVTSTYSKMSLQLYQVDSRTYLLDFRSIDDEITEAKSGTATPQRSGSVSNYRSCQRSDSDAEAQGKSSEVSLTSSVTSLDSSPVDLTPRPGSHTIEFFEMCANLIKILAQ

[2] = biological target: 5'-AMP-activated protein kinase catalytic subunit alpha-1 (Homo sapiens) (UniProt Q13131); assay: Activation of AMPKalpha in human LS 174T cells assessed as phosphorylation at T172 at 1 to 3 uM by Western blotting analysis; format: cell-based; conditions: LS174T
LS174T [3] = assay: Inhibition of p70S6K in human LS 174T cells assessed as decrease in S6 phosphorylation by Western blotting analysis; format: cell-based
LS174T [4] = assay: Inhibition of p70S6K phosphorylation in human LS 174T cells by Western blotting analysis; format: cell-based
LS174T [5] = assay: Cytotoxicity against human LS 174T cells assessed as growth inhibition after 2 to 4 days; format: functional, cell-based
SW480 = assay: Cytotoxicity against human SW480 cells assessed as growth inhibition after 2 to 4 days; format: functional, cell-based
LS174T [6] = assay: Activation of AKT in human LS 174T cells assessed as phosphorylation at Ser473 at 3 uM by Western blotting analysis; format: cell-based

fold change (FC) [1] | Compound | further results
2.16 | O=C(Nc1ccc(C(F)(F)F)cc1)Nc1cccc(SC(F)(F)F)c1 | –
0.99 | O=C(Nc1ccc(OC(F)(F)F)cc1)Nc1cc(F)c(F)c(F)c1 | –
0.96 | O=C(Nc1ccc(OC(F)(F)F)cc1)Nc1cc(Cl)c(Cl)c(Cl)c1 | –
– | CNC(=O)c1cc(Oc2ccc(NC(=O)Nc3ccc(Cl)c(C(F)(F)F)c3)cc2)ccn1 | Activity [2]: inactive; inhibition (LS174T [3]): Active; inhibition (LS174T [4]): Active
0.72 | O=C(Nc1ccc(SC(F)(F)F)cc1)Nc1cccc(Cl)c1F | –
2.6 | O=C(Nc1ccc(OC(F)(F)F)cc1)Nc1ccc(SC(F)(F)F)c(Cl)c1 | –
2.02 | O=C(Nc1ccc(SC(F)(F)F)cc1)Nc1cc(F)c(F)c(F)c1 | growth inhibition (GI) (LS174T [5]): Active; growth inhibition (GI) (SW480): Active
1.05 | N#Cc1ccc(NC(=O)Nc2ccc(SC(F)(F)F)cc2)cc1 | –
2.32 | O=C(Nc1ccc(SC(F)(F)F)cc1)Nc1cc(Cl)c(Cl)c(Cl)c1 | –
4 | O=C(Nc1ccc(C(F)(F)F)cc1)Nc1cc(F)c(F)c(F)c1 | –
1.19 | O=C(Nc1ccc(SC(F)(F)F)cc1)Nc1ccc(C(F)(F)F)cc1 | –
1.14 | O=C(Nc1ccc(SC(F)(F)F)cc1)Nc1cc(F)cc(F)c1 | –
0.71 | O=C(Nc1ccc(Cl)cc1)Nc1ccc(SC(F)(F)F)cc1 | –
1.83 | O=C(Nc1cc(F)cc(F)c1)Nc1cccc(SC(F)(F)F)c1 | –
– | O=C(Nc1ccc(SC(F)(F)F)cc1)Nc1ccc(Cl)c(Cl)c1 | Activity [2]: Active; inhibition (LS174T [3]): Active; inhibition (LS174T [4]): Active; Activity (LS174T [6]): inactive; growth inhibition (GI) (LS174T [5]): Active; growth inhibition (GI) (SW480): Active
2.48 | O=C(Nc1ccc(SC(F)(F)F)cc1)Nc1cc(F)c(F)c(F)c1F | –

fold change (FC) [1] | Compound | further results
0.86 | O=C(Nc1ccc(SC(F)(F)F)cc1)Nc1c(F)c(F)c(C(=O)O)c(F)c1F | –
1.21 | O=C(Nc1ccc(SC(F)(F)F)cc1)Nc1cc(F)c(F)cc1F | –
1.59 | O=C(Nc1ccc(SC(F)(F)F)cc1)Nc1cc(Cl)cc(Cl)c1 | –
2.37 | O=C(Nc1ccc(OC(F)(F)F)cc1)Nc1ccc(C(F)(F)F)cc1 | –
1.64 | O=C(Nc1ccc(SC(F)(F)F)cc1)Nc1ccc(Cl)c(C(F)(F)F)c1 | –
1.52 | O=C(Nc1ccc(SC(F)(F)F)cc1)Nc1ccc(F)c(C(F)(F)F)c1 | –
0.74 | O=C(Nc1ccc(SC(F)(F)F)cc1)Nc1cccc(F)c1 | –
1.05 | O=C(Nc1ccc(SC(F)(F)F)cc1)Nc1ccc(F)c(Cl)c1 | –
0.93 | O=C(Nc1ccc(SC(F)(F)F)cc1)Nc1ccc(SC(F)(F)F)c(Cl)c1 | –
1.94 | O=C(Nc1cc(Cl)cc(Cl)c1)Nc1cccc(SC(F)(F)F)c1 | –
1.44 | O=C(Nc1ccc(OC(F)(F)F)cc1)Nc1cc(F)cc(F)c1 | –
1.11 | O=C(Nc1ccc(SC(F)(F)F)cc1)Nc1ccc(F)c(F)c1 | –
0.82 | O=C(Nc1ccc(OC(F)(F)F)cc1)Nc1cc(Cl)cc(Cl)c1 | –
0.8 | O=C(Nc1ccc(OC(F)(F)F)cc1)Nc1cc(F)c(F)c(F)c1F | –
0.96 | N#Cc1cc(NC(=O)Nc2ccc(SC(F)(F)F)cc2)ccc1F | –
